Key:
[1] = system: TRZAWR (Wheat, Winter, cv Riband); assay: Postemergence herbicidal evaluation; format: in vivo, Triticum aestivum; settings: postemergence
How it was run: (§1)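 Two-week seedlings sprayed postemergence at 40 psi; formulation: 1:1 acetone/water, 0.5% TWEEN 20; application ≈0.0156–0.500 kg/ha. Greenhouse grow-out, then 0–9 visual scoring at 4–5 weeks.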

[2] = system: CHEAL (Lambsquarters, Common); assay: Preemergence herbicidal evaluation; format: in vivo, Chenopodium album; settings: rated 4-5 weeks after treatment, rating scale 0-9
How it was run: (§2)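 Steps: mix seeds into potting soil; plant atop ~1 inch soil; spray compound in aqueous acetone (~0.0156-0.500 kg/ha equivalent); maintain in greenhouse with watering; rate visually 0-9 versus control at 4-5 weeks.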

CASOB (Sicklepod) = assay: Preemergence herbicidal evaluation; format: in vivo, Cassia obtusifolia; settings: rated 4-5 weeks after treatment, rating scale 0-9
How it was run: as §2

ZEAMX (Corn, Field) = assay: Preemergence herbicidal evaluation; format: in vivo, Zea mays; settings: rated 4-5 weeks after treatment, rating scale 0-9
How it was run: as §2

AMBEL (Ragweed, Common) = assay: Postemergence herbicidal evaluation; format: in vivo, Ambrosia artemisifolia; settings: postemergence
How it was run: as §1

[3] = system: IPOHE (Morningglory, Ivyleaf); assay: Preemergence herbicidal evaluation; format: in vivo, Ipomoea hederacea; settings: rated 4-5 weeks after treatment, rating scale 0-9
How it was run: as §2

ECHCG (Barnyardgrass) [4] = assay: Postemergence herbicidal evaluation; format: in vivo, Echinochloa crus-galli; settings: postemergence
How it was run: as §1

GALAP (Galium) = assay: Preemergence herbicidal evaluation; format: in vivo, Galium aparine; settings: rated 4-5 weeks after treatment, rating scale 0-9
How it was run: as §2

[5] = system: GLXMAW (Soybean, Williams); assay: Postemergence herbicidal evaluation; format: in vivo, Glycine max, (L.) Merr. cv Williams; settings: postemergence
How it was run: as §1

ECHCG (Barnyardgrass) [6] = assay: Preemergence herbicidal evaluation; format: in vivo, Echinochloa crus-galli; settings: rated 4-5 weeks after treatment, rating scale 0-9
How it was run: as §2

SETVI (Foxtail, Green) = assay: Postemergence herbicidal evaluation; format: in vivo, Setaria viridis; settings: postemergence
How it was run: as §1

[7] = system: IPOHE (Morningglory, Ivyleaf); assay: Postemergence herbicidal evaluation; format: in vivo, Ipomoea hederacea; settings: postemergence
How it was run: as §1

ABUTH (Velvetleaf) = assay: Postemergence herbicidal evaluation; format: in vivo, Abutilon theophrasti; settings: postemergence
How it was run: as §1

In the case of COc1cccc(CN2C(=O)CSC2=Nc2cc(-n3c(=O)cc(C(F)(F)F)n(C)c3=O)c(F)cc2Cl)c1 [Compound 137, 3-{4-Chloro-2-fluoro-5-{[3-(m-methoxybenzyl)-4-oxo-2-thiazolidinylidene]amino}phenyl}-1-methyl-6-(trifluoromethyl)-2,4(1H,3H)-pyrimidinedione], the “herbicidal rating TRZAWR” value ([1]; rate 0.0156 kg/ha) is reported as 3.5, the “herbicidal rating TRZAWR” value ([1]; rate 0.0313 kg/ha) is reported as 3.0 and the “herbicidal rating TRZAWR” value ([1]; rate 0.0625 kg/ha) is reported as 4.5. The “Preemergence herbicidal rating CHEAL” value ([2]; rate 0.0625 kg/ha) was 9.0, the “Preemergence herbicidal rating CHEAL” value ([2]; rate 0.1250 kg/ha) was 9.0 and the “Preemergence herbicidal rating CHEAL” value ([2]; rate 0.2500 kg/ha) was 9.0. For the same molecule, the “Preemergence herbicidal rating CASOB” value (CASOB (Sicklepod); rate 0.0625 kg/ha) was 0.0, the “Preemergence herbicidal rating CASOB” value (CASOB (Sicklepod); rate 0.1250 kg/ha) was 0.0 and the “Preemergence herbicidal rating CASOB” value (CASOB (Sicklepod); rate 0.2500 kg/ha) was 0.0. The “Preemergence herbicidal rating ZEAMX” value (ZEAMX (Corn, Field); rate 0.0625 kg/ha) was 0.0, the “Preemergence herbicidal rating ZEAMX” value (ZEAMX (Corn, Field); rate 0.1250 kg/ha) was 0.0 and the “Preemergence herbicidal rating ZEAMX” value (ZEAMX (Corn, Field); rate 0.2500 kg/ha) was 0.0. For the same molecule, the “herbicidal rating AMBEL” value (AMBEL (Ragweed, Common); rate 0.0156 kg/ha) was 9.0, the “herbicidal rating AMBEL” value (AMBEL (Ragweed, Common); rate 0.0313 kg/ha) was 9.0 and the “herbicidal rating AMBEL” value (AMBEL (Ragweed, Common); rate 0.0625 kg/ha) was 9.0. The “Preemergence herbicidal rating IPOHE” value ([3]; rate 0.0625 kg/ha) was 0.0, the “Preemergence herbicidal rating IPOHE” value ([3]; rate 0.1250 kg/ha) was 0.0 and the “Preemergence herbicidal rating IPOHE” value ([3]; rate 0.2500 kg/ha) was 1.0. The “herbicidal rating ECHCG” value (ECHCG (Barnyardgrass) [4]; rate 0.0156 kg/ha) was 2.0, the “herbicidal rating ECHCG” value (ECHCG (Barnyardgrass) [4]; rate 0.0313 kg/ha) was 1.0 and the “herbicidal rating ECHCG” value (ECHCG (Barnyardgrass) [4]; rate 0.0625 kg/ha) was 3.0. The “Preemergence herbicidal rating GALAP” value (GALAP (Galium); rate 0.0625 kg/ha) was 0.0, the “Preemergence herbicidal rating GALAP” value (GALAP (Galium); rate 0.1250 kg/ha) was 0.0 and the “Preemergence herbicidal rating GALAP” value (GALAP (Galium); rate 0.2500 kg/ha) was 0.0. For the same molecule, the “herbicidal rating GLXMAW” value ([5]; rate 0.0156 kg/ha) was 6.0, the “herbicidal rating GLXMAW” value ([5]; rate 0.0313 kg/ha) was 5.5 and the “herbicidal rating GLXMAW” value ([5]; rate 0.0625 kg/ha) was 5.5. The “Preemergence herbicidal rating ECHCG” value (ECHCG (Barnyardgrass) [6]; rate 0.0625 kg/ha) was 0.0, the “Preemergence herbicidal rating ECHCG” value (ECHCG (Barnyardgrass) [6]; rate 0.1250 kg/ha) was 0.0 and the “Preemergence herbicidal rating ECHCG” value (ECHCG (Barnyardgrass) [6]; rate 0.2500 kg/ha) was 0.0. The “herbicidal rating SETVI” value (SETVI (Foxtail, Green); rate 0.0156 kg/ha) was 1.0, the “herbicidal rating SETVI” value (SETVI (Foxtail, Green); rate 0.0313 kg/ha) was 1.0 and the “herbicidal rating SETVI” value (SETVI (Foxtail, Green); rate 0.0625 kg/ha) was 3.0. For the same molecule, the “herbicidal rating IPOHE” value ([7]; rate 0.0156 kg/ha) was 9.0, the “herbicidal rating IPOHE” value ([7]; rate 0.0313 kg/ha) was 9.0 and the “herbicidal rating IPOHE” value ([7]; rate 0.0625 kg/ha) was 9.0. The “herbicidal rating ABUTH” value (ABUTH (Velvetleaf); rate 0.0156 kg/ha) was 9.0, the “herbicidal rating ABUTH” value (ABUTH (Velvetleaf); rate 0.0313 kg/ha) was 9.0 and the “herbicidal rating ABUTH” value (ABUTH (Velvetleaf); rate 0.0625 kg/ha) was 9.0.

COc1ccc(CN2C(=O)CSC2=Nc2cc(-n3c(=O)cc(C(F)(F)F)n(C)c3=O)c(F)cc2Cl)c(OC)c1 [Compound 139, 3-{4-Chloro-5-{[3-(2,4-dimethoxybenzyl)-4-oxo-2-thiazolidinylidene]amino}-2-fluorophenyl}-1-methyl-6-(trifluoromethyl)-2,4(1H,3H)-pyrimidinedione] was tested, and the “herbicidal rating TRZAWR” value ([1]; rate 0.0156 kg/ha) was 2.5, the “herbicidal rating TRZAWR” value ([1]; rate 0.0313 kg/ha) was 3.0 and the “herbicidal rating TRZAWR” value ([1]; rate 0.0625 kg/ha) was 3.5. The “Preemergence herbicidal rating CHEAL” value ([2]; rate 0.0156 kg/ha) was 0.0, the “Preemergence herbicidal rating CHEAL” value ([2]; rate 0.0313 kg/ha) was 7.0 and the “Preemergence herbicidal rating CHEAL” value ([2]; rate 0.0625 kg/ha) was 9.0. The “Preemergence herbicidal rating CHEAL” value ([2]; rate 0.1250 kg/ha) was 9.0, the “Preemergence herbicidal rating CHEAL” value ([2]; rate 0.2500 kg/ha) was 9.0 and the “Preemergence herbicidal rating CASOB” value (CASOB (Sicklepod); rate 0.0156 kg/ha) was 0.0. For the same molecule, the “Preemergence herbicidal rating CASOB” value (CASOB (Sicklepod); rate 0.0313 kg/ha) was 0.0, the “Preemergence herbicidal rating CASOB” value (CASOB (Sicklepod); rate 0.0625 kg/ha) was 1.0 and the “Preemergence herbicidal rating CASOB” value (CASOB (Sicklepod); rate 0.1250 kg/ha) was 2.0. For the same molecule, the “Preemergence herbicidal rating CASOB” value (CASOB (Sicklepod); rate 0.2500 kg/ha) was 1.0, the “Preemergence herbicidal rating ZEAMX” value (ZEAMX (Corn, Field); rate 0.0156 kg/ha) was 0.0 and the “Preemergence herbicidal rating ZEAMX” value (ZEAMX (Corn, Field); rate 0.0313 kg/ha) was 0.0. For the same molecule, the “Preemergence herbicidal rating ZEAMX” value (ZEAMX (Corn, Field); rate 0.0625 kg/ha) was 0.0, the “Preemergence herbicidal rating ZEAMX” value (ZEAMX (Corn, Field); rate 0.1250 kg/ha) was 0.0 and the “Preemergence herbicidal rating ZEAMX” value (ZEAMX (Corn, Field); rate 0.2500 kg/ha) was 1.0. For the same molecule, the “herbicidal rating AMBEL” value (AMBEL (Ragweed, Common); rate 0.0156 kg/ha) was 9.0, the “herbicidal rating AMBEL” value (AMBEL (Ragweed, Common); rate 0.0313 kg/ha) was 9.0 and the “herbicidal rating AMBEL” value (AMBEL (Ragweed, Common); rate 0.0625 kg/ha) was 7.0. For the same molecule, the “Preemergence herbicidal rating IPOHE” value ([3]; rate 0.0156 kg/ha) was 0.0, the “Preemergence herbicidal rating IPOHE” value ([3]; rate 0.0313 kg/ha) was 0.0 and the “Preemergence herbicidal rating IPOHE” value ([3]; rate 0.0625 kg/ha) was 2.0. The “Preemergence herbicidal rating IPOHE” value ([3]; rate 0.2500 kg/ha) was 2.0, the “herbicidal rating ECHCG” value (ECHCG (Barnyardgrass) [4]; rate 0.0156 kg/ha) was 3.0 and the “herbicidal rating ECHCG” value (ECHCG (Barnyardgrass) [4]; rate 0.0313 kg/ha) was 2.0. For the same molecule, the “herbicidal rating ECHCG” value (ECHCG (Barnyardgrass) [4]; rate 0.0625 kg/ha) was 3.0, the “Preemergence herbicidal rating GALAP” value (GALAP (Galium); rate 0.0156 kg/ha) was 0.0 and the “Preemergence herbicidal rating GALAP” value (GALAP (Galium); rate 0.0313 kg/ha) was 0.0. For the same molecule, the “Preemergence herbicidal rating GALAP” value (GALAP (Galium); rate 0.0625 kg/ha) was 0.0, the “Preemergence herbicidal rating GALAP” value (GALAP (Galium); rate 0.1250 kg/ha) was 0.0 and the “Preemergence herbicidal rating GALAP” value (GALAP (Galium); rate 0.2500 kg/ha) was 0.0. The “herbicidal rating GLXMAW” value ([5]; rate 0.0156 kg/ha) was 5.5, the “herbicidal rating GLXMAW” value ([5]; rate 0.0313 kg/ha) was 6.5 and the “herbicidal rating GLXMAW” value ([5]; rate 0.0625 kg/ha) was 7.0. The “Preemergence herbicidal rating ECHCG” value (ECHCG (Barnyardgrass) [6]; rate 0.0156 kg/ha) was 1.0, the “Preemergence herbicidal rating ECHCG” value (ECHCG (Barnyardgrass) [6]; rate 0.0313 kg/ha) was 0.0 and the “Preemergence herbicidal rating ECHCG” value (ECHCG (Barnyardgrass) [6]; rate 0.0625 kg/ha) was 0.0. For the same molecule, the “Preemergence herbicidal rating ECHCG” value (ECHCG (Barnyardgrass) [6]; rate 0.1250 kg/ha) was 1.0, the “Preemergence herbicidal rating ECHCG” value (ECHCG (Barnyardgrass) [6]; rate 0.2500 kg/ha) was 1.0 and the “herbicidal rating SETVI” value (SETVI (Foxtail, Green); rate 0.0156 kg/ha) was 2.0. For the same molecule, the “herbicidal rating SETVI” value (SETVI (Foxtail, Green); rate 0.0313 kg/ha) was 2.0, the “herbicidal rating SETVI” value (SETVI (Foxtail, Green); rate 0.0625 kg/ha) was 5.0 and the “herbicidal rating IPOHE” value ([7]; rate 0.0156 kg/ha) was 9.0. The “herbicidal rating IPOHE” value ([7]; rate 0.0313 kg/ha) was 9.0, the “herbicidal rating IPOHE” value ([7]; rate 0.0625 kg/ha) was 5.0 and the “herbicidal rating ABUTH” value (ABUTH (Velvetleaf); rate 0.0156 kg/ha) was 9.0. The “herbicidal rating ABUTH” value (ABUTH (Velvetleaf); rate 0.0313 kg/ha) was 9.0 and the “herbicidal rating ABUTH” value (ABUTH (Velvetleaf); rate 0.0625 kg/ha) was 9.0.

From patent US20020137929A1, “1 - (3-heterocyclylphenyl) isothiourea, -isourea, -guanidine and -amidine herbicidal agents” (Intellectual Property Department, BASF Aktiengesellschaft, priority 1998, published 2002)
